Measurements as given in BindingDB's records for patent US20240239813 (Risen (Suzhou) Pharma Tech Co., 2024).

Target: GTPase KRas [G12D] (Homo sapiens, UniProt P01116, G12D)
Assay: KRAS Binding Assay
Method: The ability of a test compound to bind to KRASG12D was measured by using an HTRF KRASG12D GTP Binding Kit (Cisbio, 63ADK000CB27PEG). […] 5 μL of compound solution was added to each well after serial dilution, followed by addition of 5 μL of GDP (50 nM) solution. After 30 minutes incubation at room temperature, 1×6His Eu cryptate antibody solution and GTP-Red tracer were added to the plate, then incubated for another 30 minutes. The HTRF signal was measured with a VICTOR Nivo multimode plate reader according to the manufacturer's instructions.

Sequence of GTPase KRas [G12D] (P01116 whole entry G12D): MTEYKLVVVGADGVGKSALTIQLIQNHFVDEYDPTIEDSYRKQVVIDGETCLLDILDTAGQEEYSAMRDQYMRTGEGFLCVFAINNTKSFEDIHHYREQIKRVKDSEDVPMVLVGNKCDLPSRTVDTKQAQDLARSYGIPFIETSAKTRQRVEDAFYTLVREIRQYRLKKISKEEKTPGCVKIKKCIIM

CCc1c(F)ccc2cc(O)cc(-c3ncc4c(N5CCC(O)(CO)CC5)nc(OC[C@@]56CCCN5C[C@H](F)C6)nc4c3F)c12 [US20240239813, Compound 41]
IC50: > 1000 nM

CN(C)CC1(COc2nc(N3CCC[C@]4(CCO4)C3)c3cnc(-c4cc(N)ccc4-c4cccs4)c(F)c3n2)CC1 [US20240239813, Compound 17a]
IC50: > 1000 nM

CCc1c(F)ccc2cc(OC(=O)N(C)C)cc(-c3ncc4c(N5CCC[C@]6(CCO6)C5)nc(OCC5(CN(C)C)CC5)nc4c3F)c12 [US20240239813, Compound 24a]
IC50: > 1000 nM

Cc1ccc2[nH]ncc2c1-c1ncc2c(N3CCCC4(CCO4)C3)nc(OC[C@@]34CCCN3C[C@H](F)C4)nc2c1F (some centres undefined) [US20240239813, Compound 71]
IC50: > 1000 nM

CCc1c(F)ccc2cc(O)cc(-c3ncc4c(N5[C@@H]6CC[C@H]5C[C@@H](O)C6)nc(OC[C@@]56CCCN5C[C@H](F)C6)nc4c3F)c12 [US20240239813, Compound 10]
IC50: 881 nM

CCc1c(F)ccc2cc(O)cc(-c3ncc4c(N5[C@@H]6CC[C@H]5C[C@H](O)C6)nc(OC[C@@]56CCCN5C[C@H](F)C6)nc4c3F)c12 [US20240239813, Compound 11]
IC50: > 1000 nM

CCc1c(F)ccc2cc(O)cc(-c3ncc4c(N5C[C@H](O)[C@@H](O)[C@H](O)[C@H]5CO)nc(OC[C@@]56CCCN5C[C@H](F)C6)nc4c3F)c12 [US20240239813, Compound 51]
IC50: > 1000 nM

Oc1cc(-c2ncc3c(N4CCCC5(CCO5)C4)nc(OC[C@@]45CCCN4C[C@H](F)C5)nc3c2F)c2ccccc2c1 (some centres undefined) [US20240239813, Compound 8a]
IC50: > 1000 nM

CCc1c(F)ccc2cc(OC(=O)C(C)C)cc(-c3ncc4c(N5CCC[C@]6(CCO6)C5)nc(OCC5(CN(C)C)CC5)nc4c3F)c12 [US20240239813, Compound 22a]
IC50: > 1000 nM
